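48-hour exposure; five concentrations; linearly interpolated endpoints. GI50 marks 50% less growth.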 Active and inactive are the calls of the source. Rule as the data show it: active = GI50 up to about 1.1 µM and inactive = higher.
How the values were obtained:
Experiment in all cases: inhibition of tumour cell growth, NCI panel, 48 h
[1] = test system: SF-295
[2] = test system: OVCAR-4
[3] = test system: A549
[4] = test system: UACC-257
[5] = test system: Malme-3M
[6] = test system: SNB-19
[7] = test system: SR
[8] = test system: SF-539
[9] = test system: M14
[10] = test system: RXF 393
[11] = test system: SNB-75
[12] = test system: KM12
[13] = test system: HOP-92
[14] = test system: OVCAR-3
[15] = test system: NCI-H522
[16] = test system: HL-60
[17] = test system: 786-0
[18] = test system: NCI/ADR-RES
[19] = test system: LOX IMVI

| SMILES | GI50 [1] | GI50 [2] | GI50 [3] | GI50 [4] | GI50 [5] | GI50 [6] | GI50 [7] | GI50 [8] | GI50 [9] | GI50 [10] | GI50 [11] | GI50 [12] | GI50 [13] | GI50 [14] | GI50 [15] | GI50 [16] | GI50 [17] | GI50 [18] | GI50 [19] |
| --- | --- | --- | --- | --- | --- | --- | --- | --- | --- | --- | --- | --- | --- | --- | --- | --- | --- | --- | --- |
| CC1C2CC(C/C2=N/O)C1(C)C (stereo not given) | > 100 µM (inactive) | > 100 µM (inactive) | > 100 µM (inactive) | > 100 µM (inactive) | > 100 µM (inactive) | > 100 µM (inactive) | > 100 µM (inactive) | > 100 µM (inactive) | > 100 µM (inactive) | > 100 µM (inactive) | > 100 µM (inactive) | > 100 µM (inactive) | > 100 µM (inactive) | > 100 µM (inactive) | > 100 µM (inactive) | > 100 µM (inactive) | > 100 µM (inactive) |  |  |
| CCCCN(CCCC)C(=C(C(Cl)=C(Cl)Cl)[N+](=O)[O-])N(CCCC)CCCC | > 100 µM (inactive) | > 100 µM (inactive) | > 100 µM (inactive) | 32.1 µM (inactive) | > 100 µM (inactive) | > 100 µM (inactive) |  | > 100 µM (inactive) | > 100 µM (inactive) |  | > 100 µM (inactive) | 72.1 µM (inactive) | 90.8 µM (inactive) | 37.2 µM (inactive) | 48.3 µM (inactive) |  | > 100 µM (inactive) | > 100 µM (inactive) |  |
| CC(C)C1=CC(=O)C(C)(C2C(O)CC3(C)C4CC=C5C(CCC(OC6OC(CO)C(O)C(O)C6OC6OC(C)C(O)C(O)C6O)C5(C)C)C4(C)C(=O)CC23C)O1 (stereo not given) | > 100 µM (inactive) | > 100 µM (inactive) | > 100 µM (inactive) | > 100 µM (inactive) | > 100 µM (inactive) | > 100 µM (inactive) |  | > 100 µM (inactive) | > 100 µM (inactive) | > 100 µM (inactive) | > 100 µM (inactive) | > 100 µM (inactive) | > 100 µM (inactive) | > 100 µM (inactive) | > 100 µM (inactive) |  | > 100 µM (inactive) | > 100 µM (inactive) |  |
| O=C1CCC(Cl)=CC2CCCN12 (stereo not given) |  |  | > 100 µM (inactive) | > 100 µM (inactive) | > 100 µM (inactive) | > 100 µM (inactive) |  | > 100 µM (inactive) | > 100 µM (inactive) | > 100 µM (inactive) | > 100 µM (inactive) |  | > 100 µM (inactive) |  |  | > 100 µM (inactive) | > 100 µM (inactive) |  | > 100 µM (inactive) |
| Nn1c(S)nnc1N/N=C1/C(=O)Nc2c(Cl)cc(Cl)cc21 | > 100 µM (inactive) | > 100 µM (inactive) | > 100 µM (inactive) | > 100 µM (inactive) | > 100 µM (inactive) | 76 µM (inactive) | 38.3 µM (inactive) | > 100 µM (inactive) | > 100 µM (inactive) | 17.9 µM (inactive) |  | > 100 µM (inactive) | 73.1 µM (inactive) | > 100 µM (inactive) | 95.1 µM (inactive) | 69.2 µM (inactive) | 97.3 µM (inactive) |  | 48.5 µM (inactive) |
| CC(C)(C)n1[nH]c(=O)n(C(C)(C)C)c1=O | > 100 µM (inactive) | > 100 µM (inactive) | > 100 µM (inactive) | > 100 µM (inactive) |  | > 100 µM (inactive) | > 100 µM (inactive) | > 100 µM (inactive) | > 100 µM (inactive) | > 100 µM (inactive) | > 100 µM (inactive) | > 100 µM (inactive) | > 100 µM (inactive) | > 100 µM (inactive) |  | > 100 µM (inactive) | > 100 µM (inactive) |  | > 100 µM (inactive) |
| COc1ccc(OC)c(/C=C2/C(=O)N/C(=N\C(C)=O)N2C)c1 | > 100 µM (inactive) | > 100 µM (inactive) | > 100 µM (inactive) | > 100 µM (inactive) |  | > 100 µM (inactive) |  | > 100 µM (inactive) | > 100 µM (inactive) | > 100 µM (inactive) | > 100 µM (inactive) | > 100 µM (inactive) | > 100 µM (inactive) | > 100 µM (inactive) | > 100 µM (inactive) | 95.1 µM (inactive) | > 100 µM (inactive) | > 100 µM (inactive) | > 100 µM (inactive) |
| COc1cc2c(cc1OC)-c1cc3cc(OC)c(OC)cc3c(C)[n+]1CC2.O=C([O-])CS(=O)(=O)O | > 100 µM (inactive) | > 100 µM (inactive) | > 100 µM (inactive) | 15.8 µM (inactive) | 29.3 µM (inactive) | 41.7 µM (inactive) |  | 76.6 µM (inactive) | > 100 µM (inactive) | > 100 µM (inactive) |  | 26.3 µM (inactive) | 95.9 µM (inactive) | 29.1 µM (inactive) | 6.78 µM (inactive) | > 100 µM (inactive) | > 100 µM (inactive) | > 100 µM (inactive) | > 100 µM (inactive) |
| CCCCCCCCOP(=O)(O)OP(=O)(O)OCC1OC(n2ccc(N)nc2=O)C(O)C1O (stereo not given) | > 100 µM (inactive) | > 100 µM (inactive) | > 100 µM (inactive) | > 100 µM (inactive) | > 100 µM (inactive) | > 100 µM (inactive) |  | > 100 µM (inactive) | > 100 µM (inactive) | > 100 µM (inactive) | > 100 µM (inactive) | > 100 µM (inactive) | > 100 µM (inactive) | > 100 µM (inactive) |  | > 100 µM (inactive) | > 100 µM (inactive) | > 100 µM (inactive) | > 100 µM (inactive) |
| CC(=O)C1C(=O)C(=O)N(c2ccc([N+](=O)[O-])cc2Cl)C1=O (stereo not given) | > 100 µM (inactive) | > 100 µM (inactive) | > 100 µM (inactive) | > 100 µM (inactive) |  | > 100 µM (inactive) |  | > 100 µM (inactive) | > 100 µM (inactive) | 97.9 µM (inactive) | > 100 µM (inactive) | > 100 µM (inactive) | 56.6 µM (inactive) | 94.2 µM (inactive) | > 100 µM (inactive) | 93.1 µM (inactive) | > 100 µM (inactive) | > 100 µM (inactive) | > 100 µM (inactive) |
| O=C(O)C(Cc1c[nH]c2ccccc12)N1C(=O)c2ccccc2C1=O (stereo not given) | > 100 µM (inactive) | > 100 µM (inactive) | > 100 µM (inactive) | > 100 µM (inactive) | > 100 µM (inactive) | > 100 µM (inactive) |  | > 100 µM (inactive) | > 100 µM (inactive) | > 100 µM (inactive) | > 100 µM (inactive) | > 100 µM (inactive) | 0.785 µM (active) | > 100 µM (inactive) | > 100 µM (inactive) |  | > 100 µM (inactive) | > 100 µM (inactive) | > 100 µM (inactive) |
| O=[N+]([O-])c1nccn1CC1OC(n2ccnc2[N+](=O)[O-])C(O)C(O)C1O (stereo not given) |  |  | > 100 µM (inactive) | > 100 µM (inactive) | > 100 µM (inactive) | > 100 µM (inactive) | > 100 µM (inactive) |  | > 100 µM (inactive) | > 100 µM (inactive) | > 100 µM (inactive) | > 100 µM (inactive) | > 100 µM (inactive) |  |  | > 100 µM (inactive) | > 100 µM (inactive) |  |  |

— ChEMBL document CHEMBL1201862, “PubChem BioAssay data set” (2004)
